From US10807986B2, “Fused pyrimidine compound or salt thereof” (TAIHO PHARMACEUTICAL CO., LTD., priority 2016, dated 2020)

assay: Evaluation of stability in liver microsome; details: mouse liver microsome 0.25 mg/mL, test compound 1 μM, 37° C., 30 minutes

Row | SMILES | Remaining (%)
1 | COCc1ccc(NC(=O)c2c(C#Cc3ccc4c(c3)NCCO4)n(C3(C)CC3)c3ncnc(N)c23)cc1 [Example 158, 4-amino-6-((3,4-dihydro-2H-benzo[b][1,4]oxazin-6-yl)ethynyl)-N-(4-(methoxymethyl)phenyl)-7-(1-methylcyclopropyl)-7H-pyrrolo[2,3-d]pyrimidine-5-carboxamide] | 85
2 | COCc1ccc(NC(=O)c2c(C#Cc3cnc4ccoc4c3)n(C3(C)CC3)c3ncnc(N)c23)cc1 [Example 159, 4-amino-6-(furo[3,2-b]pyridin-6-ylethynyl)-N-(4-(methoxymethyl)phenyl)-7-(1-methylcyclopropyl)-7H-pyrrolo[2,3-d]pyrimidine-5-carboxamide] | 78
3 | COCc1ccc(NC(=O)c2c(C#Cc3ccc[nH]3)n(C3(C)CC3)c3ncnc(N)c23)cc1 [Example 161, 6-((1H-pyrrol-2-yl)ethynyl)-4-amino-N-(4-(methoxymethyl)phenyl)-7-(1-methylcyclopropyl)-7H-pyrrolo[2,3-d]pyrimidine-5-carboxamide] | 68
4 | COCc1ccc(NC(=O)c2c(C#Cc3ccccc3)n(C3(C)CC3)c3ncnc(N)c23)cc1 [Example 162, 4-amino-N-(4-(methoxymethyl)phenyl)-7-(1-methylcyclopropyl)-6-(phenylethynyl)-7H-pyrrolo[2,3-d]pyrimidine-5-carboxamide] | 76
5 | COCc1ccc(NC(=O)c2c(C#Cc3ccc(OC)cc3)n(C3(C)CC3)c3ncnc(N)c23)cc1 [Example 165, 4-amino-N-(4-(methoxymethyl)phenyl)-6-((4-methoxypheny)ethynyl)-7-(1-methylcyclopropyl)-7H-pyrrolo[2,3-d]pyrimidine-5-carboxamide] | 90
6 | COCc1ccc(NC(=O)c2c(-c3cn[nH]c3)n(C3(C)CC3)c3ncnc(N)c23)cc1 [Example 167, 4-amino-N-(4-(methoxymethyl)phenyl)-7-(1-methylcyclopropyl)-6-(1H-pyrazol-4-yl)-7H-pyrrolo[2,3-d]pyrimidine-5-carboxamide] | 80
7 | COCc1ccc(NC(=O)c2c(-c3ccc(N4CCN(C)CC4)cc3)n(C3(C)CC3)c3ncnc(N)c23)cc1 [Example 171, 4-amino-N-(4-(methoxymethyl)phenyl)-7-(1-methylcyclopropyl)-6-(4-(4-methylpiperazin-1-yl)phenyl)-7H-pyrrolo[2,3-d]pyrimidine-5-carboxamide] | 77
8 | COCc1ccc(NC(=O)c2c(C#Cc3ccccn3)n(C3(C)CC3)c3ncnc(N)c23)cc1 [Example 172, 4-amino-N-[4-(methoxymethyl)phenyl]-7-(1-methylcyclopropyl)-6-(pyridin-2-ylethynyl)-7H-pyrrolo[2,3-d]pyrimidine-5-carboxamide] | 61
9 | COCc1ccc(NC(=O)c2c(C#CC(C)(C)O)n(C3(C)CC3)c3ncnc(N)c23)cc1 [Example 174, 4-amino-6-(3-hydroxy-3-methylbut-1-yn-1-yl)-N-(4-(methoxymethyl)phenyl)-7-(1-methylcyclopropyl)-7H-pyrrolo[2,3-d]pyrimidine-5-carboxamide] | 72
10 | COCc1ccc(NC(=O)c2c(C#Cc3cncc(F)c3)n(C3(C)CC3)c3ncnc(N)c23)cc1 [Example 175, 4-amino-6-((5-fluoropyridin-3-yl)ethynyl)-N-(4-(methoxymethyl)phenyl)-7-(1-methylcyclopropyl)-7H-pyrrolo[2,3-d]pyrimidine-5-carboxamide] | 66
11 | COCc1ccc(NC(=O)c2c(C#Cc3ccsc3)n(C3(C)CC3)c3ncnc(N)c23)cc1 [Example 176, 4-amino-N-(4-(methoxymethyl)phenyl)-7-(1-methylcyclopropyl)-6-(thiophen-3-ylethynyl)-7H-pyrrolo[2,3-d]pyrimidine-5-carboxamide] | 70

Further lines, results first:

Row | Remaining (%) | SMILES
12 | 72 | COCc1ccc(NC(=O)c2c(C#CC3(O)CCOC3)n(C3(C)CC3)c3ncnc(N)c23)cc1 (stereo not drawn) [Example 177, 4-amino-6-((3-hydroxytetrahydrofuran-3-yl)ethynyl)-N-(4-(methoxymethyl)phenyl)-7-(1-methylcyclopropyl)-7H-pyrrolo[2,3-d]pyrimidine-5-carboxamide]
13 | 88 | COCc1ccc(NC(=O)c2c(C#CCN3CC[S+]([O-])CC3)n(C3(C)CC3)c3ncnc(N)c23)cc1 [Example 178, 4-amino-N-(4-(methoxymethyl)phenyl)-7-(1-methylcyclopropyl)-6-(3-(1-oxidethiomorpholino)prop-1-yn-1-yl)-7H-pyrrolo[2,3-d]pyrimidine-5-carboxamide]
14 | 85 | COCc1ccc(NC(=O)c2c(-c3ccc(CO)nc3)n(C3(C)CC3)c3ncnc(N)c23)cc1 [Example 179, 4-amino-6-(6-(hydroxymethyl)pyridin-3-yl)-N-(4-(methoxymethyl)phenyl)-7-(1-methylcyclopropyl)-7H-pyrrolo[2,3-d]pyrimidine-5-carboxamide]
15 | 62 | COCc1ccc(NC(=O)c2c(C#Cc3cn(C)nc3C)n(C3(C)CC3)c3ncnc(N)c23)cc1 [Example 181, 4-amino-6-((1,3-dimethyl-1H-pyrazol-4-yl)ethynyl)-N-(4-(methoxymethyl)phenyl)-7-(1-methylcyclopropyl)-7H-pyrrolo[2,3-d]pyrimidine-5-carboxamide]
16 | 61 | COCc1ccc(NC(=O)c2c(C#Cc3cnn(C)c3C)n(C3(C)CC3)c3ncnc(N)c23)cc1 [Example 182, 4-amino-6-((1,5-dimethyl-1H-pyrazol-4-yl)ethynyl)-N-(4-(methoxymethyl)phenyl)-7-(1-methylcyclopropy1)-7H-pyrrolo[2,3-d]pyrimidine-5-carboxamide]
17 | 77 | COCc1ccc(NC(=O)c2c(C#CC3CCN(C)CC3)n(C3(C)CC3)c3ncnc(N)c23)cc1 [Example 183, 4-amino-N-(4-(methoxymethyl)phenyl)-7-(1-methylcyclopropyl)-6-((1-methylpiperidin-4-yl)ethynyl)-7H-pyrrolo[2,3-d]pyrimidine-5-carboxamide]
18 | 58 | COCc1ccc(NC(=O)c2c(C#Cc3c(C)noc3C)n(C3(C)CC3)c3ncnc(N)c23)cc1 [Example 184, 4-amino-6-((3,5-dimethylisoxazol-4-yl)ethynyl)-N-(4-(methoxymethyl)phenyl)-7-(1-methylcyclopropyl)-7H-pyrrolo[2,3-d]pyrimidine-5-carboxamide]
19 | 80 | COCc1ccc(NC(=O)c2c(C#CC3(O)CCOCC3)n(C3(C)CC3)c3ncnc(N)c23)cc1 [Example 185, 4-amino-6-((4-hydroxytetrahydro-2H-pyran4-yl)ethynyl)-N-(4-(methoxymethyl)phenyl)-7-(1-methylcyclopropyl)-7H-pyrrolo[2,3-d]pyrimidine-5-carboxamide]
20 | 68 | COCc1ccc(NC(=O)c2c(C#CCCN3CCOCC3)n(C3(C)CC3)c3ncnc(N)c23)cc1 [Example 187, 4-amino-N-(4-(methoxymethyl)phenyl)-7-(1-methylcyclopropyl)-6-(4-morpholinobut-1-yn-1-yl)-7H-pyrrolo [2,3-d]pyrimidine-5-carboxamide]
21 | 68 | COCc1ccc(NC(=O)c2c(C#CCC(C)O)n(C3(C)CC3)c3ncnc(N)c23)cc1 (stereo not drawn) [Example 188, 4-amino-6-(4-hydroxypent-1-yn-1-yl)-N-(4-(methoxymethyl)phenyl)-7-(1-methylcyclopropyl)-7H-pyrrolo[2,3-d]pyrimidine-5-carboxamide]
